Measured values taken from patent US8871753B2, “Macrocyclic compounds and their use as kinase inhibitors” (Incyte Corporation, priority 2008, dated 2014).
Structures can show the parent of a compound that is named as a salt. Where two headings read alike, the source gives them in different places.

Tests used:
Assay type in all cases: biochemical
[1] = biological target: T1, human JAK1 (a.a. 837-1142) (Homo sapiens, UniProt P23458); assay: In vitro JAK kinase assay (HTRF, phosphorylation of a biotinylated peptide), JAK1; settings: read-out: JAK1 IC50
T1 construct: human JAK1 (a.a. 837-1142); His tag (N); made in house; host or cells: insect cells (baculovirus)
T1 sequence (P23458 849-1154): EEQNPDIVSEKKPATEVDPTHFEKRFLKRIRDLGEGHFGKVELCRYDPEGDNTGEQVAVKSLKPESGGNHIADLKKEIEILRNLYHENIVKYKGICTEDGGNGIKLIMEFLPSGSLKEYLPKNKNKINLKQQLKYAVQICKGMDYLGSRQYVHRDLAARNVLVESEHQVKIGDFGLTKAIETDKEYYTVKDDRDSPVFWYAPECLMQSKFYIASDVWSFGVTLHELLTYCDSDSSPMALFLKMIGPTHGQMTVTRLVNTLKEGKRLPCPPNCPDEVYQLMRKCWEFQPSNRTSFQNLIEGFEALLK
In short: (§1)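 Kinase activity was measured as phosphorylation of a biotinylated peptide, with ATP at 90 μM for JAK1, 30 μM for JAK2 and 3 μM for JAK3. Reactions ran 1 hr at room temperature, were stopped with EDTA plus SA-APC and Eu-Py20, and were read by HTRF after 40 minutes of antibody binding.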

[2] = biological target: T2, human JAK2 (a.a. 828-1132) (Homo sapiens, UniProt O60674); assay: In vitro JAK kinase assay (HTRF, phosphorylation of a biotinylated peptide), JAK2
T2 construct: JAK2 (a.a. 828-1132); His tag (N); made in house; host or cells: insect cells (baculovirus)
T2 sequence (O60674 828-1132): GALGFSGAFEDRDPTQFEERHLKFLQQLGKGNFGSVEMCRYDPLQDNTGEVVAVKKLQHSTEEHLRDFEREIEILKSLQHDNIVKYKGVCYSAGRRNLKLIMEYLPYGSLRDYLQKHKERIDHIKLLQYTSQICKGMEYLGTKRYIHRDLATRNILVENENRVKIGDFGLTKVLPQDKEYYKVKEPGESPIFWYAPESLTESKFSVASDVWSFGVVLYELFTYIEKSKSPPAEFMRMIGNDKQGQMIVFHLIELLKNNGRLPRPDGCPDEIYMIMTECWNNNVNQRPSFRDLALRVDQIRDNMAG
In short: as §1

[3] = biological target: T3, Recombinant Human Anaplastic Lymphoma Kinase (Homo sapiens, UniProt Q9UM73); assay: ALK HTRF kinase assay
T3 construct: purchased Invitrogen, Carlsbad, Calif
T3 sequence (Q9UM73 19-1620): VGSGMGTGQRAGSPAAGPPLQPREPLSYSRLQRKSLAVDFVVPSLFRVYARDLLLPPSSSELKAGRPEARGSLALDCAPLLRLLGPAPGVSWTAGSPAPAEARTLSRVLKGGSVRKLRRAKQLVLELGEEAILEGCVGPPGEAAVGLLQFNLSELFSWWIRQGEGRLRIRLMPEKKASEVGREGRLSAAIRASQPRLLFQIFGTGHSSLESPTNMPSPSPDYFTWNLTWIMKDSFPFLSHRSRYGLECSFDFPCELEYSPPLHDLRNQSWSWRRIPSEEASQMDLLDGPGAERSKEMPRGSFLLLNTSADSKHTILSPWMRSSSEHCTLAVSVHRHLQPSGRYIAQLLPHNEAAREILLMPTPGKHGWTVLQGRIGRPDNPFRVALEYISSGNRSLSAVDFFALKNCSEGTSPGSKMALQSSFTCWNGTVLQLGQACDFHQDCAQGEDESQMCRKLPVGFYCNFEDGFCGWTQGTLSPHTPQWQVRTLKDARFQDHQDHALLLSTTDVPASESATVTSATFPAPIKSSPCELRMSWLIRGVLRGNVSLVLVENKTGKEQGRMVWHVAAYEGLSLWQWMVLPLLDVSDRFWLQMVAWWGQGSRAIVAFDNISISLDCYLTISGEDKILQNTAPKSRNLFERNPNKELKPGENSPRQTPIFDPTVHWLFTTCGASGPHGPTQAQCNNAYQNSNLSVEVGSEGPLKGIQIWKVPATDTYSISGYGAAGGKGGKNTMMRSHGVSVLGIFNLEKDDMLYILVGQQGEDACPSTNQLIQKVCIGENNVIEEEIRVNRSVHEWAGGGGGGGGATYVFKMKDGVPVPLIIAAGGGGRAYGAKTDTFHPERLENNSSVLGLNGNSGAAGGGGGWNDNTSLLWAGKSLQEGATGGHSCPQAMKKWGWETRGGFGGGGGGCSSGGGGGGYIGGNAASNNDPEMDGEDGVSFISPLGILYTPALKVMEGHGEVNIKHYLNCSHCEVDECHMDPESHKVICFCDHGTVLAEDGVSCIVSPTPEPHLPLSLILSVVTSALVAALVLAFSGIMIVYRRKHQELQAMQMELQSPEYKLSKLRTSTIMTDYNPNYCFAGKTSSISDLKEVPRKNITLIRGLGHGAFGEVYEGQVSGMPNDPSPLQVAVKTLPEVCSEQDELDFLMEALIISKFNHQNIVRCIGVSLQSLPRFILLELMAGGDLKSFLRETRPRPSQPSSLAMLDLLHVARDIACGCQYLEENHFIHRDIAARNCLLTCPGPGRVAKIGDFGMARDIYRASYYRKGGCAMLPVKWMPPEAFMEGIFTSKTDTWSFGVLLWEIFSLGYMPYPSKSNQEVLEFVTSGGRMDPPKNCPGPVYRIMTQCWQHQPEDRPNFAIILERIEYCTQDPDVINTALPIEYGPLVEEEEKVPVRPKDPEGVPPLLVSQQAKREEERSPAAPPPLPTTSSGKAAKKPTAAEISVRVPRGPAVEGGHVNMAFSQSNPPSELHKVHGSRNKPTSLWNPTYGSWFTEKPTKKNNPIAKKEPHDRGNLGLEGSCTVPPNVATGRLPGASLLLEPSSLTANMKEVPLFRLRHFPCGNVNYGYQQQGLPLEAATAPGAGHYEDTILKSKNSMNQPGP
In short: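 Recombinant human ALK with biotinylated peptide substrate; phosphorylation detected by HTRF using Eu-labelled anti-phosphotyrosine antibody and streptavidin-allophycocyanin. IC50 from a sigmoidal fit with Hill slope.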

[4] = biological target: T4, human JAK3 (a.a. 781-1124) (Homo sapiens, UniProt P52333); assay: In vitro JAK kinase assay (HTRF, phosphorylation of a biotinylated peptide), JAK3
T4 construct: JAK3 (a.a. 781-1124); His tag (N); made in house; host or cells: insect cells (baculovirus)
T4 sequence (P52333 781-1124): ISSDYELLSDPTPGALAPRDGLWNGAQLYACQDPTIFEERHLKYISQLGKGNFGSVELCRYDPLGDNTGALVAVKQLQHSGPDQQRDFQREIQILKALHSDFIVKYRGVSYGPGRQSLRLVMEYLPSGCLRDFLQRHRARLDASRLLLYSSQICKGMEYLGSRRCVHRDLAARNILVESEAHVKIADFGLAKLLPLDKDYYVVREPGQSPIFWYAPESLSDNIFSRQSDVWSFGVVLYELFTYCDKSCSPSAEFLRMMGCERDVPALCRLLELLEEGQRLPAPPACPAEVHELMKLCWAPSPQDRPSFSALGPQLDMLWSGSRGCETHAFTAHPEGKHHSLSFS
In short: as §1

TYK2 = TYK2 (Homo sapiens, UniProt P29597); assay: TYK2 kinase inhibition (Table A1)
TYK2, sequence (P29597 whole entry): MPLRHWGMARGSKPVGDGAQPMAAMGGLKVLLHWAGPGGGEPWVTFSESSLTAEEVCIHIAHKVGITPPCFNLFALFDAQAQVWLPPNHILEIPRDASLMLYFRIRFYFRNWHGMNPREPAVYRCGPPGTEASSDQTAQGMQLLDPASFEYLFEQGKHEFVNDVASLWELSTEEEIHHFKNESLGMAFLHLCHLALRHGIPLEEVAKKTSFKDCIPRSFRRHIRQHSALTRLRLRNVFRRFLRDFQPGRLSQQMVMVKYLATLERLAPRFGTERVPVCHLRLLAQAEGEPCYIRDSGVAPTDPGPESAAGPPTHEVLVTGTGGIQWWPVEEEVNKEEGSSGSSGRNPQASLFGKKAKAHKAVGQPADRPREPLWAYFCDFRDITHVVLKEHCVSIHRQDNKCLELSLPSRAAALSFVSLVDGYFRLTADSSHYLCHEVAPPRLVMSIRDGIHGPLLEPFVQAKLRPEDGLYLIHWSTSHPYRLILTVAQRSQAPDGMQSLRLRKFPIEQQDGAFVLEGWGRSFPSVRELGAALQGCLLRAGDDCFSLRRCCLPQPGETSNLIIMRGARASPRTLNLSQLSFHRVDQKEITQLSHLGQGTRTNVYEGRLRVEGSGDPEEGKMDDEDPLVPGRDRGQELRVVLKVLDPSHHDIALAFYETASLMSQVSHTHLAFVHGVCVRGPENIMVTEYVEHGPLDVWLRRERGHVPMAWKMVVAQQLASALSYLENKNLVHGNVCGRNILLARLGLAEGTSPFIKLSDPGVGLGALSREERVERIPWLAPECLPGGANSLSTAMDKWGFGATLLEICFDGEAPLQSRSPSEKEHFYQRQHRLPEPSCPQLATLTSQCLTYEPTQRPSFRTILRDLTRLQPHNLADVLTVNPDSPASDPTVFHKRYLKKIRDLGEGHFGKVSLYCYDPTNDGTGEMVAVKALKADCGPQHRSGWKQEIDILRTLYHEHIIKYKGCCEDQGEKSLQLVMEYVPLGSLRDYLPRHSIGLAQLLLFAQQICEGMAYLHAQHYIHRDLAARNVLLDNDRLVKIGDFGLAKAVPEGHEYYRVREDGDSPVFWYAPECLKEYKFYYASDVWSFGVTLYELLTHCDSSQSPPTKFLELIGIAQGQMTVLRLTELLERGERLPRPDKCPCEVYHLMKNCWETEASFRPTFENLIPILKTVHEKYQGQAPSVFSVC

[5] = Table B1, cells without percent sign
[6] = percentage inhibition of the example compound at a concentration of 500 nM or 1 mM (not specified which)
[7] = method AA1 (90 μM ATP) or AA2 (1000 μM ATP), not stated per value
[8] = method AA1 (30 μM ATP) or AA2 (1000 μM ATP), not stated per value
[9] = compound at 500 nM or 1 mM, 90 μM ATP
[10] = method AA1 (3 μM ATP) or AA2 (1000 μM ATP), not stated per value

SMILES | IC50 ([1]; Table B1) [µM] | IC50 ([2]; Table B1) [µM] | IC50 ([4]; Table B1) [µM] | IC50 (TYK2; Table B1) [µM] | IC50 [1, 7] [µM] | IC50 [2, 8] [µM] | ALK % of inhibition at a concentration of 500 nM or 1 mM [3, 9] [%] | IC50 [4, 10] [µM] | IC50 (TYK2) [µM] | further results
CS(=O)(=O)c1ccc(-c2cc3cc(c2)Nc2ncc(Cl)c(n2)Nc2cccc(c2)OCC3)cc1 [Example D29, 6-Chloro-19-[4-(methylsulfonyl)phenyl]-14-oxa-2,4,8,23-tetraazatetracyclo[15.3.1.1(3,7).1(9,13)]tricosa-1(21),3(23),4,6,9(22),10,12,17,19-nonaene trifluoroacetate] | – | – | – | – | – | – | – | – | – | IC50 ([1]; Table D1): 0.002 µM; IC50 ([2]; Table D1): 0.0005 µM; IC50 ([3]; Table D1, 90 μM ATP): 0.238 µM; IC50 ([4]; Table D1): 0.014 µM; IC50 (TYK2; Table D1): 0.0034 µM
Cc1cc(C(=O)Nc2cc3cc(c2)Nc2nc(ncc2Cl)Nc2cccc(c2)CC3)no1 [Example B205, N-[6-Chloro-2,4,8,22-tetraazatetracyclo[14.3.1.1(3,7).1(9,13)]docosa-1(20),3(22),4,6,9(21),10,12,16,18-nonaen-11-yl]-5-methylisoxazole-3-carboxamide trifluoroacetate] | 0.188 | 0.146 | 0.509 | > 1 | – | – | – | – | – | IC50 [3, 5]: > 10 µM
COc1cccc(C(=O)Nc2ccc3cc2CCc2cccc(c2)Nc2ncc(Cl)c(n2)N3)c1 [Example B66, N-[6-Chloro-2,4,8,22-tetraazatetracyclo[14.3.1.1(3,7).1(9,13)]docosa-1(20), 3(22),4,6,9(21),10,12,16,18-nonaen-12-yl]-3-methoxybenzamide trifluoroacetate] | 0.003 | 0.0016 | 0.013 | 0.0045 | – | – | – | – | – | IC50 [3, 5]: 0.31 µM
N#Cc1ccc(C(=O)N2CC[C@H](NC(=O)Nc3ccc4cc3CCc3cccc(c3)Nc3ncc(Cl)c(n3)N4)C2)cc1 [Example B235, N-[6-Chloro-2,4,8,22-tetraazatetracyclo[14.3.1.1(3,7).1(9,13)]docosa-1(20),3(22),4,6,9(21),10,12,16,18-nonaen-12-yl]-N′-[(3S)-1-(4-cyanobenzoyl)pyrrolidin-3-yl]urea trifluoroacetate] | 0.006 | 0.021 | 0.213 | 0.036 | – | – | – | – | – | ALK % of inhibition at a concentration of 500 nM or 1 mM ([3]; compound at a concentration of 500 nM or 1 mM (not specified), cells shown as percentage): 7.3%
O=C(Nc1ccc(F)c(Cl)c1)c1cc2cc(c1)Nc1nc(ncc1Cl)Nc1cccc(c1)CC2 [Example B7, 6-Chloro-N-(3-chloro-4-fluorophenyl)-2,4,8,22-tetraazatetracyclo[14.3.1.1(3,7).1(9,13)]docosa-1(20),3(22),4,6,9(21),10,12,16,18-nonaene-11-carboxamide trifluoroacetate] | > 1 | 0.7 | > 1 | > 1 | – | – | – | – | – | IC50 [3, 5]: > 10 µM
O=C(Nc1ccc2cc1CCc1cncc(c1)Nc1ncc(Cl)c(n1)N2)N1CCN(c2ccccc2Cl)CC1 [Example B305, N-[6-Chloro-2,4,8,18,22-pentaazatetracyclo[14.3.1.1(3,7).1(9,13)]docosa-1(20),3(22),4,6,9(21),10,12,16,18-nonaen-12-yl]-4-(2-chlorophenyl)piperazine-1-carboxamide bis(trifluoroacetate)] | 0.015 | 0.148 | > 0.4 | 0.038 | – | – | – | – | – | ALK % of inhibition at a concentration of 500 nM or 1 mM [3, 6]: 79%
O=C(Nc1ccc2cc1CCc1cccc(c1)Nc1ncc(Cl)c(n1)N2)NC1CCCC1 [Example B88, N-[6-Chloro-2,4,8,22-tetraazatetracyclo[14.3.1.1(3,7).1(9,13)]docosa-1(20), 3(22),4,6,9(21),10,12,16,18-nonaen-12-yl]-N′-cyclopentylurea trifluoroacetate] | 0.00074 | 0.0017 | 0.029 | 0.0063 | – | – | – | – | – | IC50 [3, 5]: 0.93 µM
O=C(COc1cc2cc(c1)Nc1nc(ncc1Cl)Nc1cccc(c1)CC2)Nc1ccccc1 [Example A24, 2-{[6-Chloro-2,4,8,22-tetraazatetracyclo[14.3.1.1(3,7).1(9,13)]docosa-1(20),3(22),4,6,9(21),10,12,16,18-nonaen-11-yl]oxy}-N-phenylacetamide trifluoroacetate] | – | – | – | – | 0.047 | 0.0043 | 11 | 0.058 | 0.139 | –
Cc1cc(N2CCC(CC(=O)Nc3ccc4cc3CCc3cccc(c3)Nc3ncc(Cl)c(n3)N4)CC2)no1 [Example A248, N-[6-Chloro-2,4,8,22-tetraazatetracyclo[14.3.1.1(3,7).1(9,13)]docosa-1(20),3(22),4,6,9(21),10,12,16,18-nonaen-12-yl]-2-[1-(5-methylisoxazol-3-yl)piperidin-4-yl]acetamide trifluoroacetate] | – | – | – | – | 0.0087 | 0.03 | 50 | > 0.2 | 0.082 | –
CN1c2cccc(c2)OCCc2cccc(c2)Nc2ncc(Cl)c1n2 [Example D9, 6-Chloro-8-methyl-14-oxa-2,4,8,23-tetraazatetracyclo[15.3.1.1(3,7).1(9,13)]tricosa-1(21),3(23),4,6,9(22),10,12,17,19-nonaene trifluoroacetate] | – | – | – | – | – | – | – | – | – | IC50 ([1]; Table D1): 0.183 µM; IC50 ([2]; Table D1): 0.047 µM; IC50 ([3]; Table D1, 90 μM ATP): > 0.952 µM; IC50 ([4]; Table D1): 0.489 µM; IC50 (TYK2; Table D1): 0.137 µM
N#Cc1c(N2CCC(CC(=O)Nc3ccc4cc3CCc3cncc(c3)Nc3ncc(Cl)c(n3)N4)CC2)cccc1C(F)(F)F [Example A235, N-[6-Chloro-2,4,8,18,22-pentaazatetracyclo[14.3.1.1(3,7).1(9,13)]docosa-1(20),3(22),4,6,9(21),10,12,16,18-nonaen-12-yl]-2-{1-[2-cyano-3-(trifluoromethyl)phenyl]piperidin-4-yl}acetamide tris(trifluoroacetate)] | – | – | – | – | 0.012 | 0.326 | 4.6 | > 0.4 | > 0.4 | –
Cc1cc(N2CCC(CC(=O)Nc3ccc4cc3CCc3cncc(c3)Nc3ncc(Cl)c(n3)N4)CC2)no1 [Example A247, N-[6-Chloro-2,4,8,18,22-pentaazatetracyclo[14.3.1.1(3,7).1(9,13)]docosa-1(20),3(22),4,6,9(21),10,12,16,18-nonaen-12-yl]-2-[1-(5-methylisoxazol-3-yl)piperidin-4-yl]acetamide bis(trifluoroacetate)] | – | – | – | – | 0.0069 | 0.072 | 35 | > 0.2 | 0.084 | –
Cc1cc(C(=O)Nc2cc3cc(c2)OCCSc2cccc(c2)Nc2nc(ncc2Cl)N3)no1 [Example D58, N-[6-Chloro-17-oxa-14-thia-2,4,8,24-tetraazatetracyclo[16.3.1.1(3,7).1(9,13)]tetracosa-1(22),3(24),4,6,9(23),10,12,18,20-nonaen-20-yl]-5-methylisoxazole-3-carboxamide trifluoroacetate] | – | – | – | – | – | – | – | – | – | IC50 ([1]; Table D1): 0.0065 µM; IC50 ([2]; Table D1): 0.0013 µM; IC50 ([3]; Table D1, 90 μM ATP): 0.49 µM; IC50 ([4]; Table D1): 0.021 µM; IC50 (TYK2; Table D1): 0.0025 µM
CN(C)C(=O)N1CCC(CC(=O)Nc2ccc3cc2CCc2cncc(c2)Nc2ncc(Cl)c(n2)N3)CC1 [Example A95, 4-(2-{[6-Chloro-2,4,8,18,22-pentaazatetracyclo[14.3.1.1(3,7).1(9,13)]docosa-1(20),3(22),4,6,9(21),10,12,16,18-nonaen-12-yl]amino}-2-oxoethyl)-N,N-dimethylpiperidine-1-carboxamide bis(trifluoroacetate)] | – | – | – | – | 0.0091 | 0.023 | 18 | 0.16 | 0.009 | –
Cn1cnc(S(=O)(=O)Nc2ccc3cc2CCc2cccc(c2)Nc2ncc(Cl)c(n2)N3)c1 [Example B144, N-[6-Chloro-2,4,8,22-tetraazatetracyclo[14.3.1.1(3,7).1(9,13)]docosa-1(20), 3(22),4,6,9(21),10,12,16,18-nonaen-12-yl]-1-methyl-1H-imidazole-4-sulfonamide bis(trifluoroacetate)] | 0.00034 | 0.0002 | 0.0042 | 0.0005 | – | – | – | – | – | IC50 [3, 5]: 0.6 µM
O=C(NO)Nc1ccc2cc1CCc1cccc(c1)Nc1ncc(Cl)c(n1)N2 [Example B324, N-[6-Chloro-2,4,8,22-tetraazatetracyclo[14.3.1.1(3,7).1(9,13)]docosa-1(20),3(22),4,6,9(21),10,12,16,18-nonaen-12-yl]-N′-hydroxyurea trifluoroacetate] | 0.02 | 0.056 | 0.0075 | 0.0028 | – | – | – | – | – | ALK % of inhibition at a concentration of 500 nM or 1 mM [3, 6]: 16%
CSc1ccccc1NC(=O)N1CCC(C(=O)Nc2ccc3cc2CCc2cccc(c2)Nc2ncc(Cl)c(n2)N3)CC1 [Example A39, N(4)-[6-Chloro-2,4,8,22-tetraazatetracyclo[14.3.1.1(3,7).1(9,13)]docosa-1(20),3(22),4,6,9(21),10,12,16,18-nonaen-12-yl]-N(1)-[2-(methylthio)phenyl]piperidine-1,4-dicarboxamide trifluoroacetate] | – | – | – | – | 0.019 | 0.036 | 39 | 0.066 | 0.077 | –
